Data as given in the COVID Moonshot data (paper PMC11187573), “Identification of SARS-CoV-2 Mpro inhibitors through deep reinforcement learning for de novo drug design and computational chemistry approaches” (RSC Medicinal Chemistry, 2024).

Molecular target: SARS-CoV-2 Main Protease (SARS-CoV-2) (UniProt P0DTD1)
Protocol: Compounds were seeded into assay-ready plates (Greiner 384 low volume, cat 784900) using an Echo 555 acoustic dispenser, and DMSO was back-filled for a uniform concentration in assay plates (DMSO concentration maximum 1%) Screening assays were performed in duplicate at 20µM and 50µM. […] Dose response assays were performed in 12 point dilutions of 2-fold, typically beginning at 100µM. […] Reagents for Mpro assay were dispensed into the assay plate in 10µl volumes for a final volume of 20µL.
Mpro was pre-incubated for 15 minutes at room temperature with compound before addition of substrate and a further 30 minute incubation. Protease reaction was measured in a BMG Pherastar FS with a 480/520 ex/em filter set. Raw data was mapped and normalized to high (Protease with DMSO) and low (No Protease) controls using Genedata Screener software.

Row | Compound | IC50 [nM] | inhibition (20.0 µM) [%] | inhibition (50.0 µM) [%]
1 | O=C(Nc1cncc2ccccc12)[C@@H]1CCNc2cc(Cl)c(Cl)cc21 (stereo in doubt) | 50 | – | –
2 | COc1ccc(NC(=O)Nc2cn(C)c(=O)c3ccccc23)cc1OC | – | 1.6 | 10.8
3 | O=C(OCC(O)CO)c1ccccc1Nc1ccnc2cc(Cl)ccc12 (stereo not given) | – | 3.82 | -5.01
4 | CCn1c(=O)c(-c2cc[nH]n2)cc2c(C)nc(N)nc21 | – | -0.487 | 4.38
5 | O=C(Nc1nncn1C1CC1)C1CCOc2c(F)cccc21 (stereo not given) | – | 2.37 | 3.56
6 | CC(C)Oc1ccc(N(C(=O)c2cnc[nH]2)C(C(=O)NCCc2cccc(F)c2)c2cccnc2)cc1 (stereo not given) | 712 | – | –
7 | Cn1cc(NC(=O)N(Cc2ccco2)CC2CCCO2)c2ccccc2c1=O (stereo not given) | – | 2.81 | 0.168
8 | Cc1[nH]c2ncnc(NC(=O)c3cccc4c3oc(=O)n4C)c2c1C | – | 2.86 | 6.1
9 | CC(C)Cn1cc(NC(=O)NCCc2c[nH]c3ccccc23)c2ccccc2c1=O | – | 1.66 | 6.69
10 | CCOC(=O)N1CCC(NC(=O)Nc2cn(C)c(=O)c3ccccc23)CC1 | – | -1.08 | 1.92
11 | Cn1cc(NC(=O)NCCc2ccc(Cl)cc2)c2ccccc2c1=O | – | -6.47 | -3.22
12 | CC1(C)CN(C(=O)c2ccc(-c3cccc4nc(NC(=O)C5CC5)nn34)cc2)C1 | – | -1.13 | 0.838
13 | Cn1cc(NC(=O)NCCCN2CCc3ccccc3C2)c2ccccc2c1=O | – | -2.25 | 1.39
14 | CCOC(=O)Cc1csc(NC(=O)Nc2cn(CC(C)C)c(=O)c3ccccc23)n1 | – | 23.2 | 2.55
15 | CC(C)Cn1cc(NC(=O)NCCC2=CCCCC2)c2ccccc2c1=O | – | 25.7 | 0.931
16 | CC(C)Cn1cc(NC(=O)NC2CCCCCC2)c2ccccc2c1=O | – | 4.79 | 2.3
17 | COc1ccc(OC)c(CNC(=O)Nc2cn(C)c(=O)c3ccccc23)c1 | – | 25 | 3.4
18 | O=C(Cc1cc(Cl)cc(Nc2ccc(C(F)(F)F)cn2)c1)Nc1cncc2ccccc12 | 1220 | – | –
19 | Cc1ccc2nc(Nc3cc(Cl)cc(CC(=O)Nc4cncc5ccccc45)c3)sc2c1 | 450 | – | –
20 | CC(C)Cn1cc(NC(=O)NC2CCCc3ccccc32)c2ccccc2c1=O (stereo not given) | – | 26.4 | 12.2
21 | C[C@@H]1CC[C@@H](c2ccoc2)N2C1CC[C@@]1(CS[C@@]3(CC[C@H]4[C@H](C)CC[C@@H](c5ccoc5)N4[C@@H]3O)C1)[C@@H]2O (stereo in doubt) | – | -19.4 | -23.4

Row | Compound | IC50 [nM] | inhibition (20.0 µM) [%] | inhibition (50.0 µM) [%]
22 | Cc1ccncc1NC(=O)Cc1ccc2[nH]ncc2c1 | – | -1.11 | 0.248
23 | COc1ccccc1OCCNC(=O)c1cc(=O)[nH]c2cccc(OC)c12 | – | 84.4 | 90.9
24 | CC(C)Cn1cc(NC(=O)NCc2ccc3c(c2)OCO3)c2ccccc2c1=O | – | 15.3 | 11.2
25 | CC(C)Cn1cc(NC(=O)Nc2cccnc2)c2ccccc2c1=O | – | 6.1 | 6.63
26 | NCc1cn(CC(=O)N(Cc2ccsc2)c2ccc(N3CCOCC3)cc2)nn1 | – | -4.16 | -1.29
27 | CC(CCc1ccco1)NC(=O)Nc1cn(C)c(=O)c2ccccc12 (stereo not given) | – | 32.6 | 67.9
28 | Cc1cccnc1NC(=O)Nc1cn(CC(C)C)c(=O)c2ccccc12 | – | -0.204 | -1.16
29 | Cc1nc2n(n1)CC(C(=O)NC(C)(C(=O)Nc1cncc3ccccc13)c1ccc(Cl)c(Cl)c1)CC2 (stereo not given) | 4820 | – | –
30 | CCc1ccccc1N(CC)C(=O)Nc1cn(C)c(=O)c2ccccc12 | – | -3.06 | 22.3
31 | O=C(CC1(C(=O)Nc2cncc3ccccc23)CCOc2ccc(Cl)cc21)N1CCOCC1CC(F)F (stereo not given) | 9840 | – | –
32 | Cc1noc(C)c1CCNC(=O)Nc1cn(CC(C)C)c(=O)c2ccccc12 | – | 39 | 94.5
33 | Cn1cc(NC(=O)N2CCN(C(=O)c3ccco3)CC2)c2ccccc2c1=O | – | -4.83 | -2.88
34 | O=C(Nc1nncn1C1CC1)C1CCOc2ccccc21 (stereo not given) | – | -1.27 | 2.15
35 | O=C(Cn1ccnc1[N+](=O)[O-])NCc1ccccc1 | – | -7.12 | 4.09
36 | O=C(O)C12CC(CNCc3ccc4c(c3)OCC4)(C1)OC2c1ccccc1 (stereo not given) | – | -3.12 | -4.27
37 | CC(C)(C)c1ccc(N(C(=O)c2cccnc2)C(C(=O)NCCc2cccc(F)c2)c2cccnc2)cc1 (stereo not given) | – | -5.55 | -6.34
38 | CC(NC(=O)CN)(C(=O)Nc1cncc2ccccc12)c1ccc(Cl)c(Cl)c1 (stereo not given) | 3380 | – | –
39 | Cc1cc(Cn2nnc3c(-c4ccco4)nc(N)nc32)ccc1N | – | 1.89 | -1.33
40 | CCOC(=O)c1ccc(NC(=O)Nc2cn(C)c(=O)c3ccccc23)cc1 | – | 17.1 | 4.9
41 | COC(=O)c1sccc1NC(=O)Nc1cn(CC(C)C)c(=O)c2ccccc12 | – | -3.98 | -0.958
42 | C=CC(=O)N(c1ccc(CCC#N)cc1)C(C(=O)NC(C)(C)C)c1cccnc1 (stereo not given) | – | 1.48 | 3.3

Row | Compound | IC50 [nM] | inhibition (20.0 µM) [%] | inhibition (50.0 µM) [%]
43 | CC(C)Cn1cc(NC(=O)N2CCC(Cc3ccccc3)CC2)c2ccccc2c1=O | – | -4.27 | 3.43
44 | Cn1c(-c2ccc(NC(=O)C3CCCCC(=O)N3)cc2)nc2ccccc21 (stereo not given) | – | -3.33 | -2.97
45 | O=C(Cc1cc(Cl)cc(NCc2ccc(Br)cc2)c1)Nc1cncc2ccccc12 | 1430 | – | –
46 | O=C(N[C@@H](Cc1cc(=O)[nH]c2ccccc12)C(=O)O)c1ccc(Cl)cc1 (stereo in doubt) | – | 1.24 | -22.3
47 | CCCc1c(C)[nH]c2[nH]n(-c3ccccc3)c(=O)c2c1=O | – | 4.23 | 2.81
48 | CC(C)Cn1cc(NC(=O)NCC2CCCO2)c2ccccc2c1=O (stereo not given) | – | -0.42 | 6.75
49 | CC(C)Cn1cc(NC(=O)NCCN2CCOCC2)c2ccccc2c1=O | – | -1.08 | -1.81
50 | CC(NC(=O)COc1ccc(C(N)=O)cc1)(C(=O)Nc1cncc2ccccc12)c1ccc(Cl)c(Cl)c1 (stereo not given) | 12300 | – | –
51 | CCN(CC)S(=O)(=O)c1ccc(NC(=O)Nc2cn(C)c(=O)c3ccccc23)cc1 | – | 0.771 | -1.21
52 | COc1ccc(NC(=O)Nc2cn(C)c(=O)c3ccccc23)c(OC)c1 | – | 7.06 | 17.9
53 | CC(C)Cn1cc(NC(=O)N2CCCN(Cc3ccccc3F)C2)c2ccccc2c1=O | – | -1.37 | -3.78
54 | Cn1nc(C(=O)NC(C)(C(=O)Nc2cncc3ccccc23)c2ccc(Cl)c(Cl)c2)cc1C#N (stereo not given) | 10300 | – | –
55 | COC[C@@]1(C(=O)Nc2cncc3ccccc23)CCOc2cc(Cl)c(Cl)cc21 (stereo in doubt) | 16900 | – | –
56 | Cn1cnc(CN(C(=O)c2cnnn2-c2ccccc2)c2ccc(OCc3ccccc3)cc2)c1 | – | -1.63 | 1.89
57 | Cn1cc(NC(=O)NCc2ccccn2)c2ccccc2c1=O | – | -2.84 | -6.9
58 | COc1cc(Br)ccc1Nc1cc(Cl)cc(CC(=O)Nc2cncc3ccccc23)c1 | 1390 | – | –
59 | CC1Cn2nccc2CN1C(=O)CC1(C(=O)Nc2cncc3ccccc23)CCOc2ccc(Cl)cc21 (stereo not given) | 2110 | – | –
60 | O=C(COc1ccccc1F)Nc1ncnc2[nH]cnc12 | – | -6.54 | -3.69
61 | COC(=O)C(c1ccccc1Cl)N1CCC(S)/C(=C/C(=O)O)C1 (stereo not given) | – | -2.05 | 1.77
62 | COc1cc(OC)nc(O[C@H](C(=O)O)C(OC)(c2ccccc2)c2ccccc2)n1 (stereo in doubt) | – | -28.4 | 2.42
63 | O=C(Nc1cncc2ccccc12)[C@@H]1COc2ccc(Cl)cc21 (stereo in doubt) | 555 | – | –

Row | Compound | IC50 [nM] | inhibition (20.0 µM) [%] | inhibition (50.0 µM) [%]
64 | CN(Cc1cccc2ccccc12)c1cc(Cl)cc(CC(=O)Nc2cncc3ccccc23)c1 | 1730 | – | –
65 | NC(=O)C[S@@+]([O-])C(c1ccccc1)c1ccccc1 (stereo in doubt) | – | -1.76 | -1.92
66 | CN(C)C(=O)c1cc2cnc(Nc3ccc(N4CCNCC4)cn3)nc2n1C1CCCC1 | – | -3.84 | -4.06
67 | CC(C)Cn1cc(NC(=O)NCc2ccco2)c2ccccc2c1=O | – | 50.5 | 90.3
68 | COc1cc(Cl)c(C)cc1NC(=O)Nc1cn(CC(C)C)c(=O)c2ccccc12 | – | 5.7 | 9.03
69 | Cc1[nH]c2ncnc(NC(=O)C3CCN(c4ccc(Cl)cn4)CC3)c2c1C | – | -8.15 | -5.21
70 | Cc1ccncc1NC(=O)N(C)c1cccc(Cl)c1 | – | 17.6 | 33.8
71 | CC(C)CCC(=O)C[C@H]1c2ccccc2C(=O)N1c1ccc2ccc(Cl)nc2n1 (stereo in doubt) | – | 4.26 | -0.676
72 | COc1ccc2nc(NC(=O)Nc3cn(CC(C)C)c(=O)c4ccccc34)sc2c1 | – | 21.3 | 17.6
73 | COc1ccc(OC)c(CCNC(=O)Nc2cn(CC(C)C)c(=O)c3ccccc23)c1 | – | 1.12 | 2.5
74 | Cc1[nH]c2ncnc(NC(=O)c3cc4ccccc4c(=O)o3)c2c1C | – | -7.32 | -4.98
75 | C[C@@H]1COCCN1c1cc(C2([S@](C)(=N)=O)CC2)nc(-c2cncc3[nH]ccc23)n1 (stereo in doubt) | – | -0.821 | 3.82
76 | COc1cc(Cl)nc(Nc2cc(Cl)cc(CC(=O)Nc3cncc4ccccc34)c2)n1 | 504 | – | –
77 | O=C1CCCCC(C(=O)Nc2ccc(-c3nc[nH]n3)cc2F)N1 (stereo not given) | – | -4.07 | -3.07
78 | Cc1ccncc1CC(=O)Nc1cccc2c1CNCC2 | – | -1.08 | 2.76
79 | Nc1n[nH]c2cc(O)nc(O)c12 | – | 6.14 | 30.9
80 | CC(C)Cn1cc(NC(=O)N2CCC(c3ccccc3)C2)c2ccccc2c1=O (stereo not given) | – | -2.21 | 0.973
81 | COC(=O)c1c(C)nn(-c2ccccc2)c1-c1cc(C)on1 | – | 18.8 | 3.16
82 | O=C(NCC1(C(=O)Nc2cncc3ccccc23)CCOc2ccc(Cl)cc21)C1COCCN1CC(F)(F)F (stereo not given) | 21600 | – | –
83 | CCN(Cc1ccc(F)cc1)c1cc(Cl)cc(CC(=O)Nc2cncc3ccccc23)c1 | 1410 | – | –
84 | COc1cc(Cl)c(C)cc1NC(=O)Nc1cn(C)c(=O)c2ccccc12 | – | 23.7 | 5.81
